Literature values in paper PMC8513935.

How the values were obtained:
[1] = experimental, compiled by the authors from the literature (the ESI cites the sources)
[2] = log P octanol/water from commercial databases, averaged (the ESI); conditions: Octanol (wet), 25 C
[3] = derived by the authors as gas->solvent minus gas->water (a hypothetical dry solvent; the ESI), not a two-phase measurement

For `CCCCCC`, the log K of transfer, gas to solvent ([1]; 1,2-Dichloroethane, 25 C) is given as 2.51 log10 K, the log K of transfer, gas to solvent ([1]; 2-Methylpropan-1-ol, 25 C) is given as 2.46 log10 K and the log K of transfer, gas to solvent ([1]; 2-Methylpropan-2-ol, 25 C) is given as 2.44 log10 K. For the same compound, the log K of transfer, gas to solvent ([1]; 3-Methylbutan-1-ol, 25 C) was 2.39 log10 K, the log K of transfer, gas to solvent ([1]; Acetonitrile, 25 C) was 1.96 log10 K and the log K of transfer, gas to solvent ([1]; Benzene, 25 C) was 2.65 log10 K. The log K of transfer, gas to solvent ([1]; Butan-1-ol, 25 C) was 2.44 log10 K, the log K of transfer, gas to solvent ([1]; Butanone, 25 C) was 2.52 log10 K and the log K of transfer, gas to solvent ([1]; Butyronitrile, 25 C) was 2.34 log10 K. For the same compound, the log K of transfer, gas to solvent ([1]; CCl4, 25 C) was 2.98 log10 K, the log K of transfer, gas to solvent ([1]; Chlorobenzene, 25 C) was 2.95 log10 K and the log K of transfer, gas to solvent ([1]; Chloroform, 25 C) was 2.87 log10 K. For the same compound, the log K of transfer, gas to solvent ([1]; Cyclohexanone, 25 C) was 2.44 log10 K, the log K of transfer, gas to solvent ([1]; Di-n-butyl ether, 25 C) was 2.82 log10 K and the log K of transfer, gas to solvent ([1]; Dichloromethane, 25 C) was 2.75 log10 K. The log K of transfer, gas to solvent ([1]; Ethanol, 25 C) was 2.24 log10 K, the log K of transfer, gas to solvent ([1]; Heptan-1-ol, 25 C) was 2.44 log10 K and the log K of transfer, gas to solvent ([1]; Hexadecane, 25 C) was 2.67 log10 K. The log K of transfer, gas to solvent ([1]; Hexan-1-ol, 25 C) was 2.48 log10 K, the log K of transfer, gas to solvent ([1]; Hexane, 25 C) was 2.97 log10 K and the log K of transfer, gas to solvent ([1]; Methanol, 25 C) was 2.05 log10 K. The log K of transfer, gas to solvent ([1]; Octan-1-ol, 25 C) was 2.44 log10 K, the log K of transfer, gas to solvent ([1]; Pentan-1-ol, 25 C) was 2.44 log10 K and the log K of transfer, gas to solvent ([1]; Perfluoroalkane, 25 C) was 1.88 log10 K. For the same compound, the log K of transfer, gas to solvent ([1]; Propan-1-ol, 25 C) was 2.28 log10 K, the log K of transfer, gas to solvent ([1]; Propan-2-ol, 25 C) was 2.3 log10 K and the log K of transfer, gas to solvent ([1]; Propanone, 25 C) was 2.37 log10 K. The log K of transfer, gas to solvent ([1]; Propionitrile, 25 C) was 2.22 log10 K, the log K of transfer, gas to solvent ([1]; Tetrahydrofuran, 25 C) was 2.84 log10 K and the log K of transfer, gas to solvent ([1]; Toluene, 25 C) was 2.82 log10 K. The log K of transfer, gas to solvent ([1]; Water, 25 C) was -1.82 log10 K and the log K of transfer, water to solvent [2] was 3.9 log10 K.
In the case of `CCCC`, the log K of transfer, gas to solvent ([1]; 2-Methylpropan-1-ol, 25 C) is given as 1.49 log10 K, the log K of transfer, gas to solvent ([1]; 2-Methylpropan-2-ol, 25 C) is given as 1.52 log10 K and the log K of transfer, gas to solvent ([1]; 3-Methylbutan-1-ol, 25 C) is given as 1.48 log10 K. The log K of transfer, gas to solvent ([1]; Butan-1-ol, 25 C) was 1.37 log10 K, the log K of transfer, gas to solvent ([1]; Butanone, 25 C) was 1.69 log10 K and the log K of transfer, gas to solvent ([1]; CCl4, 25 C) was 1.96 log10 K. The log K of transfer, gas to solvent ([1]; Chlorobenzene, 25 C) was 1.7 log10 K, the log K of transfer, gas to solvent ([1]; Cyclohexane, 25 C) was 2.1 log10 K and the log K of transfer, gas to solvent ([1]; Di-n-butyl ether, 25 C) was 1.79 log10 K. For the same compound, the log K of transfer, gas to solvent ([1]; Ethanol, 25 C) was 1.4 log10 K, the log K of transfer, gas to solvent ([1]; Heptan-1-ol, 25 C) was 1.43 log10 K and the log K of transfer, gas to solvent ([1]; Hexadecane, 25 C) was 1.61 log10 K. For the same compound, the log K of transfer, gas to solvent ([1]; Hexane, 25 C) was 1.87 log10 K, the log K of transfer, gas to solvent ([1]; Methanol, 25 C) was 1.27 log10 K and the log K of transfer, gas to solvent ([1]; Octan-1-ol, 25 C) was 1.53 log10 K. For the same compound, the log K of transfer, gas to solvent ([1]; Pentan-1-ol, 25 C) was 1.49 log10 K, the log K of transfer, gas to solvent ([1]; Propan-1-ol, 25 C) was 1.45 log10 K and the log K of transfer, gas to solvent ([1]; Propan-2-ol, 25 C) was 1.49 log10 K. The log K of transfer, gas to solvent ([1]; Propanone, 25 C) was 1.56 log10 K, the log K of transfer, gas to solvent ([1]; Water, 25 C) was -1.52 log10 K and the log K of transfer, water to solvent [2] was 2.89 log10 K.
For `c1ccccc1`, the log K of transfer, water to solvent ([3]; 1,2-Dichloroethane, 25 C) is listed as 2.69 log10 K, the log K of transfer, water to solvent ([3]; 2-Methylpropan-1-ol, 25 C) is listed as 2.09 log10 K and the log K of transfer, water to solvent ([3]; 2-Methylpropan-2-ol, 25 C) is listed as 2.09 log10 K. The log K of transfer, water to solvent ([3]; Acetone, 25 C) was 2.58 log10 K, the log K of transfer, water to solvent ([3]; Acetonitrile, 25 C) was 2.43 log10 K and the log K of transfer, water to solvent ([3]; Benzene, 25 C) was 2.71 log10 K. The log K of transfer, water to solvent ([3]; Butan-1-ol, 25 C) was 2.24 log10 K, the log K of transfer, water to solvent ([3]; Butan-2-ol, 25 C) was 2.14 log10 K and the log K of transfer, water to solvent ([3]; Butanone, 25 C) was 2.66 log10 K. The log K of transfer, water to solvent ([3]; Butyronitrile, 25 C) was 2.6 log10 K, the log K of transfer, water to solvent ([3]; CCl4, 25 C) was 2.61 log10 K and the log K of transfer, water to solvent ([3]; Chlorobenzene, 25 C) was 2.61 log10 K. The log K of transfer, water to solvent ([3]; Chloroform, 25 C) was 2.76 log10 K, the log K of transfer, water to solvent ([3]; Cyclohexane, 25 C) was 2.3 log10 K and the log K of transfer, water to solvent ([3]; Cyclohexanone, 25 C) was 2.67 log10 K. The log K of transfer, water to solvent ([3]; Decan-1-ol, 25 C) was 2 log10 K, the log K of transfer, water to solvent ([3]; Di-n-butyl ether, 25 C) was 2.38 log10 K and the log K of transfer, water to solvent ([3]; Dichloromethane, 25 C) was 2.89 log10 K. For the same compound, the log K of transfer, water to solvent ([3]; Ethanol, 25 C) was 2.15 log10 K, the log K of transfer, water to solvent ([3]; Heptan-1-ol, 25 C) was 2.18 log10 K and the log K of transfer, water to solvent ([3]; Hexadecane, 25 C) was 2.15 log10 K. For the same compound, the log K of transfer, water to solvent ([3]; Hexane, 25 C) was 2.31 log10 K, the log K of transfer, water to solvent ([3]; Methanol, 25 C) was 2.14 log10 K and the log K of transfer, water to solvent ([3]; Octan-1-ol(dry), 25 C) was 2.17 log10 K. The log K of transfer, water to solvent ([3]; Pentan-1-ol, 25 C) was 2.2 log10 K, the log K of transfer, water to solvent ([3]; Propan-1-ol, 25 C) was 2.15 log10 K and the log K of transfer, water to solvent ([3]; Propan-2-ol, 25 C) was 2.04 log10 K. For the same compound, the log K of transfer, water to solvent ([3]; Propionitrile, 25 C) was 2.6 log10 K, the log K of transfer, water to solvent ([3]; Tetrahydrofuran, 25 C) was 2.85 log10 K and the log K of transfer, water to solvent ([3]; Toluene, 25 C) was 2.64 log10 K. The log K of transfer, water to solvent [2] was 2.08 log10 K.
In the case of `CO`, the log K of transfer, water to solvent ([3]; 1,2-Dichloroethane, 25 C) is listed as -1.58 log10 K, the log K of transfer, water to solvent ([3]; 2-Methylpropan-1-ol, 25 C) is listed as -0.58 log10 K and the log K of transfer, water to solvent ([3]; 2-Methylpropan-2-ol, 25 C) is listed as -0.35 log10 K. The log K of transfer, water to solvent ([3]; 3-Methylbutan-1-ol, 25 C) was -0.672 log10 K, the log K of transfer, water to solvent ([3]; Acetone, 25 C) was -0.71 log10 K and the log K of transfer, water to solvent ([3]; Acetonitrile, 25 C) was -0.81 log10 K. For the same compound, the log K of transfer, water to solvent ([3]; Benzene, 25 C) was -1.85 log10 K, the log K of transfer, water to solvent ([3]; Butan-1-ol, 25 C) was -0.72 log10 K and the log K of transfer, water to solvent ([3]; Butan-2-ol, 25 C) was -0.45 log10 K. For the same compound, the log K of transfer, water to solvent ([3]; Butanone, 25 C) was -0.93 log10 K, the log K of transfer, water to solvent ([3]; Butyronitrile, 25 C) was -1.06 log10 K and the log K of transfer, water to solvent ([3]; CCl4, 25 C) was -2.24 log10 K. For the same compound, the log K of transfer, water to solvent ([3]; Chlorobenzene, 25 C) was -2.07 log10 K, the log K of transfer, water to solvent ([3]; Chloroform, 25 C) was -1.33 log10 K and the log K of transfer, water to solvent ([3]; Cyclohexane, 25 C) was -2.77 log10 K. The log K of transfer, water to solvent ([3]; Decan-1-ol, 25 C) was -1.21 log10 K, the log K of transfer, water to solvent ([3]; Di-n-butyl ether, 25 C) was -1.8 log10 K and the log K of transfer, water to solvent ([3]; Dichloromethane, 25 C) was -1.45 log10 K. The log K of transfer, water to solvent ([3]; Diethyl Ether, 25 C) was -1.26 log10 K, the log K of transfer, water to solvent ([3]; Ethanol, 25 C) was -0.34 log10 K and the log K of transfer, water to solvent ([3]; Hexadecane, 25 C) was -2.77 log10 K. The log K of transfer, water to solvent ([3]; Hexane, 25 C) was -2.59 log10 K, the log K of transfer, water to solvent ([3]; Methanol, 25 C) was -0.14 log10 K and the log K of transfer, water to solvent ([3]; Octan-1-ol(dry), 25 C) was -0.9 log10 K. For the same compound, the log K of transfer, water to solvent ([3]; Pentan-1-ol, 25 C) was -0.67 log10 K, the log K of transfer, water to solvent ([3]; Propan-1-ol, 25 C) was -0.59 log10 K and the log K of transfer, water to solvent ([3]; Propan-2-ol, 25 C) was -0.46 log10 K. For the same compound, the log K of transfer, water to solvent ([3]; Tetrahydrofuran, 25 C) was -0.9 log10 K, the log K of transfer, water to solvent ([3]; Toluene, 25 C) was -2.14 log10 K and the log K of transfer, water to solvent [2] was -0.755 log10 K.
For `C=CCCC`, the log K of transfer, gas to solvent ([1]; 1,2-Dichloroethane, 25 C) is given as 2.1 log10 K, the log K of transfer, gas to solvent ([1]; Butan-1-ol, 25 C) is given as 1.94 log10 K and the log K of transfer, gas to solvent ([1]; Butanone, 25 C) is given as 2.11 log10 K. For the same compound, the log K of transfer, gas to solvent ([1]; Chlorobenzene, 25 C) was 2.21 log10 K, the log K of transfer, gas to solvent ([1]; Cyclohexanone, 25 C) was 2.03 log10 K and the log K of transfer, gas to solvent ([1]; Hexadecane, 25 C) was 2.05 log10 K. The log K of transfer, gas to solvent ([1]; Octan-1-ol, 25 C) was 1.93 log10 K, the log K of transfer, gas to solvent ([1]; Water, 25 C) was -1.23 log10 K and the log K of transfer, water to solvent [2] was 2.8 log10 K.
